Assay results taken from patent US20090291950A1, “BICYCLIC HETEROARYL INHIBITORS OF PDE4” (KALYPSYS, INC., priority 2006, published 2009).

Assays:
PDE4B = target: T1, PDE4B (Homo sapiens, UniProt Q07343); assay: coupled PDE/AK bioluminescent assay; type: biochemical; settings: catalytic domain of PDE4B
T1 construct: hexahistidine (His6) (N); made in house
Description: Phosphodiesterases regulate the activity of the second messenger cyclic adenosine monophosphate (cAMP) by hydrolyzing cAMP to adenosine monophosphate (AMP). We developed a novel coupled PDE/AK bioluminescent high-throughput assay to measure the activity of phosphodiesterases. In the PDE/AK assay, the AMP produced from the hydrolysis of cAMP by phosphodiesterase is converted to adenosine diphosphate (ADP) by the phosphotransferase activity of adenylate kinase (also known as ADK or myokinase). Adenylate kinase will catalyze the conversion of 1 mole of AMP and 1 mole of ATP into 2 moles of ADP. Thus the conversion of AMP to ADP will result in the subsequent loss of ATP. The decrease in ATP concentration can be monitored as light output using luciferase in a reaction that requires ATP to produce light. The PDE/AK assay uses luciferase, which catalyzes the production of light from ATP present in the reaction mix. The amount of emitted light is inversely proportional to the level of AMP present in the reaction. Test compounds are incubated with the phosphodiesterases and phosphodiesterase inhibitors will decrease the rate of cAMP hydrolysis and decrease the subsequent production of AMP. Thus phosphodiesterase inhibitors will decrease the conversion of ATP to ADP and result in the greatest emission of light.
Compounds may be screened for functional potency in in vitro biochemical assays for their ability to inhibit the activity of phosphodiesterase (PDE) enzymes. A novel coupled PDE/AK assay was utilized to measure the inhibitory activity of compounds on PDE isoforms. The catalytic domain of PDE4B was fused to an amino-terminus hex-histidine affinity tag and purified. PDE4B enzyme was incubated with compounds for 10 minutes. Cyclic AMP substrate, ATP and adenylate kinase were then added to the PDE enzyme mix and incubated for 45 minutes at room temperature. A commercial ATP detection assay, Perkin Elmer's easyLite ATP detection reagent, was then added to measure the relative amount of ATP present in the reaction. After 10 minute incubation, the luminescent signal was quantitated with either the Perkin Elmer Viewlux or Molecular Devices Acquest or Analyst. Roflumilast and Rolipram are the positive controls used in the assay.
The PDE/AK assay can be performed with any cAMP dependent phosphodiesterase, and can be performed in 96-, 384-, or 1536-well plates. […] Specifically, the use of radioactive substrates in a phosphodiesterase activity assay requires special protocols for handling and waste disposal, and reduced throughput. Modified substrates add the additional complexity of potentially altering the binding to the phosphodiesterase catalytic site. Fluorescently modified substrates may cause fluorescence artifacts that may interfere in the interpretation of assay results. The use of beads that selectively bind to either the cAMP or AMP may cause an additional complexity in reagent handling. The use of antibodies that selectively bind to either cAMP or AMP can be extremely costly with a relatively small signal to noise ratio. Therefore, the novel PDE/AK assay represents a simple, cost-effective alternative to known methods.

[1] = system: dry eye (corneal staining, tear breakup time); assay: Lacrimal gland inflammation-induced dry eye in rabbits; type: in vivo; settings: topical ocular BID, rabbit ConA dry eye
Description: A more detailed description of the assay used herein may be found in Naglehout, T J et al. 2005, “Preservation of Tear Film Integrity and Inhibition of Corneal Injury by Dexamethasone in a Rabbit Model of Lacrimal Gland Inflammation-Induced Dry Eye,”J. Ocular Pharm. Ther., 21:2. 139-148, the disclosure of which is hereby incorporated by reference as if written herein in its entirety. Rabbits (n=4/group) were randomized into treatment groups and dosed topically BID with maxidex vehicle or test drug beginning one day prior to initiation of dry eye. Each rabbit received bilateral lacrimal gland injections of saline or ConA (300 μg/30 μl) and topical ocular dosing was continued BID throughout the study. Desiccation was initiated 1-2 hours following lacrimal gland injection by placing conscious rabbits in the environmental chamber (10-15% humidity/72° F.). Following 72 consecutive hours of exposure to this dry environment, the animals were anesthetized and sutures were placed in each upper and lower eyelid and lifted to form a corneal/conjunctival cup. Methylene blue dye (1 mL, 1% in dH2O) was added to the cup for three minutes and the excess removed by washing with 200 mL BSS®. The contralateral eye was then stained using the same procedure. Rabbits were euthanized immediately following the staining procedure and the eyes were excised. The corneas were isolated with a trephine and the 9.5-mm punch of the cornea was placed in 2 mL acetone/saturated sodium sulfate (7:3, vol./vol.). Absorbance of the extracted dye was determined at 660 nm. TBUT was quantified in a separate group of treated animals. TBUT was determined by instilling 5 μL sodium fluorescein into the cul de sac and manually blinking the lids to distribute the fluorescein within the tear film. Under slit lamp observation, the eye was held open and the time whereby one or more black spots or streaks appeared in the precorneal tear film was recorded. The rabbits were euthanized 3 days following ConA inj ection.

T1 sequence (Q07343 330-659 limits assumed, species assumed): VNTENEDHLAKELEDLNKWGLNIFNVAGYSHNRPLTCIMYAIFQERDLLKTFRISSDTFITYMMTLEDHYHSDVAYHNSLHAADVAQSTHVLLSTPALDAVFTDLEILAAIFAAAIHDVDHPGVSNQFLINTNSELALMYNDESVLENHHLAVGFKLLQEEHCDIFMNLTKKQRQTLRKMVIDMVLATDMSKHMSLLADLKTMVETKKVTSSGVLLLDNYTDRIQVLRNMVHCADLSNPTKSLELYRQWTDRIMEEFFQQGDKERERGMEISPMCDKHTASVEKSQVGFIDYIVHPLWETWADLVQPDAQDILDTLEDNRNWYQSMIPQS

IC50 (PDE4B): ≤ 1 µM
Compound: COc1ccc2c(Nc3c(Cl)cncc3Cl)cc(N)nc2c1OC1CCCC1 [Example 23, 8-(Cyclopentyloxy)-N4-(3,5-dichloropyridin-4-yl)-7-methoxyquinoline-2,4-diamine]
Activity at Percent Concentration Tested ([1]; 1 × 10^−2 percent concentration): Inactive
Activity at Percent Concentration Tested ([1]; 1 × 10^−4 percent concentration): Inactive
Activity at Percent Concentration Tested ([1]; 1 × 10^−6 percent concentration): Inactive
